What all share (type): functional, cell-based
In assay [1] the test system is MOLT-4. In words: Cytostatic activity against human Molt4/C8 cells.
The subject of assay [2] is CCRF-CEM. In words: Cytostatic activity against human CEM cells.
The test system of assay [3] is L1210. In words: Cytostatic activity against mouse L1210 cells.

Each structure is given as a SMILES string. Where only a bound is given, the exact number is not on record here.

Consider `CC(O)c1cn([C@@H]2O[C@H](CO)[C@@H](O)[C@H]2O)nn1` (some centres undefined), for which the IC50 in assay [1], in assay [2] and in assay [3] was above 200 µM each time.

For `OC[C@H]1O[C@@H](n2cc(-c3ccccn3)nn2)[C@H](O)[C@@H]1O`, the half-maximal inhibitory concentration (IC50) in assay [1] worked out at 170 µM; in assay [2] it was 245 µM; in assay [3], 236 µM.

With `COc1ccc(-c2cn([C@@H]3O[C@H](CO)[C@@H](O)[C@H]3O)nn2)cc1`, the 50% inhibitory concentration (IC50) was 36 µM in assay [1], 73 µM in assay [2] and 152 µM in assay [3].

Regarding `OC[C@H]1O[C@@H](n2cc(-c3ccsc3)nn2)[C@H](O)[C@@H]1O`, the half-maximal inhibitory concentration (IC50) in assay [1] came out at 126 µM; in assay [2] it was 139 µM; in assay [3], 182 µM.

For `CCCCCCc1cn([C@@H]2O[C@H](CO)[C@@H](O)[C@H]2O)nn1`, the IC50 in assay [1], in assay [2] and in assay [3] was above 200 µM in each case.

For `CCCCCCCCc1cn([C@@H]2O[C@H](CO)[C@@H](O)[C@H]2O)nn1`, the 50% inhibitory concentration (IC50) in assay [1] worked out at 50 µM; in assay [2] it was 44 µM; in assay [3], 56 µM.

`OCc1cn([C@@H]2O[C@H](CO)[C@@H](O)[C@H]2O)nn1`: the half-maximal inhibitory concentration (IC50) in assay [1], in assay [2] and in assay [3] was above 200 µM in each case.

Consider `OC[C@H]1O[C@@H](n2cc(-c3ccc(F)cc3)nn2)[C@H](O)[C@@H]1O`, for which the IC50 came out at 171 µM in assay [1], 217 µM in assay [2] and 209 µM in assay [3].

The term IC50 denotes the point on the concentration scale where inhibition reaches its midpoint. A low value points to greater potency.

These data come from ChEMBL document CHEMBL1140553, “Efficient synthesis and in vitro cytostatic activity of 4-substituted triazolyl-nucleosides” (Bioorg Med Chem Lett, 2007).
